In patent EP0493782A2, “Novel dihydropyridine amides, process for their preparation and drugs containing them” (BAYER AG, priority 1991, dated 1992):

Tested on: ANP-System
Assay: Acute hypervolaemia model in the rat (volume load, urine collected over one hour)
Format: in vivo
Conditions: Ratte; for Steigerung der Na⁺-Ausscheidung: 10 mg/kg p.o. in Tylose-Suspension, acute volume load by 15 ml/kg physiological saline into the tail vein, urine collected over one hour
Excerpt: Die ausgewählten erfindungsgemäßen Verbindungen zeigen ein nicht vorhersehbares, wertvolles pharmakologisches Wirkspektrum. Im Vergleich zu strukturähnlichen, bekannten Dihydropyridinen wie z.B. in DOS 2 228 377 beschriebenen Vertretern, zeigen die erfindungsgemäßen Verbindungen sowohl quantitativ als auch qualitativ ein anderes Wirkungsspektrum. Neben ihrer calciumantagonistischen Wirkung steigern sie die ANP-abhängige Natriurese bei Stimulation des ANP-Systems durch Volumenbelastung. Diese zusätzliche Wirkkomponente wurde in einem Modell der akuten Hypervolämie an der Ratte nachgewiesen: Die Testsubstanzen wurden oral in Tylose-Suspension verabreicht. Durch Injektion von 15 ml/kg physiologischer Kochsalzlösung in die Schwanzvene wurde eine akute Volumenbelastung ausgelöst und anschließend der Urin über eine Stunde gesammelt. Unerwarteterweise verstärken die erfindungsgemäßen Verbindungen die Natriumausscheidung. Gleichzeitig wird die Ausscheidung von cGMP, das einen spezifischen Marker für die Aktivierung des ANP-Systems darstellt, erhöht (z.B. um 100 % bei Beispiel 19).

Row | SMILES | Steigerung der Na⁺-Ausscheidung | Ausscheidung von cGMP erhöht (oral in Tylose-Suspension, acute volume load by 15 ml/kg saline i.v., urine over one hour, dose not given)
1 | COC(=O)C1=C(C)NC(C)=C(C(=O)NC2CC2)C1c1ccccc1OCCCOc1ccccc1 (stereo not shown) [Beispiel 2] | 80% | –
2 | COC(=O)C1=C(C)NC(C)=C(C(=O)NC2CCCC2)C1c1ccccc1OC (stereo not shown) [Beispiel 11] | 95% | –
3 | COC(=O)C1=C(C)NC(C)=C(C(=O)NC2CC2)C1c1ccccc1OC(F)(F)F (stereo not shown) [Beispiel 19] | 100% | 100%
